# Experimental data: patent US20230105108A1, “COMPOUNDS FOR THE TREATMENT OF BACTERIAL INFECTIONS AND POTENTIATION OF ANTIBIOTICS” (GEORGIA STATE UNIVERSITY RESEARCH FOUNDATION, INC., priority 2019, published 2023)
# Where a name gives a salt, the structure may show the parent alone. Read-outs that look alike come from different tables or passages of the source.
# Columns and labels:
# E. coli (ATCC 25922) = assay: MIC determination, sensitization fold and FIC index on E. coli; type: cell-based; conditions: for Sensitization: compound up to 25 μM; for MIC of AB with MD-124: MD-124 concentration 5 μg/ml
# Procedure, shortened: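 E. coli in cation-adjusted Mueller Hinton II, 5×10^5 CFU/ml, 24 h at 37 °C shaking; rifampicin two-fold serial dilutions with or without fixed sensitizer (10 μM).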
# B. subtilis = assay: MIC determination and sensitization fold on B. subtilis; type: cell-based; conditions: B. subtilis; for MIC: compound alone, read-out: MIC; for Sensitization fold: erythromycin
# M. smegmatis = assay: MIC on mycobacteria; type: cell-based, Mycobacterium smegmatis; conditions: for MIC: Mycolicibacterium smegmatis, read-out: MIC on mycobacteria
# [1] = system: A. baumannii (ATCC 17978); assay: MIC, sensitization fold and FIC index on A. baumannii; type: cell-based; conditions: A. baumannii towards the antibiotic
# K. pneumoniae (43816) = assay: MIC, sensitization fold and FIC index on K. pneumoniae; type: cell-based; conditions: for MIC of AB with 5 μg/ml MD-124: K. pneumoniae; for Sensitization fold with 5 μg/ml MD-124: K. pneumoniae towards the antibiotic
# [2] = system: NDM-1 expressing E. coli strain; assay: microbe, parasite or virus in culture; type: cell-based; conditions: NDM-1 expressing E. coli towards the antibiotic
# E. coli = assay: Sensitization of E. coli (sensitization fold), Example 2; type: cell-based
# Method: The sensitization fold of select compounds of the present invention was determined. E. coli bacteria were cultured in nutrient broth at 37° C. overnight prior to treatment. […] Bacterial density was measured based on OD600.
# [3] = Cytotoxicity in H9c2 cells (CCK-8); type: cell-based; conditions: rat, H9c2 cells; for CC50 at 24 h: H9c2 cell line
# Procedure, shortened: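 H9c2 cells were grown in DMEM with 10% FBS, seeded the day before, and exposed to a range of di-amidine concentrations for 24 h at 37 °C, 5% CO2. Viability was read by CCK-8 after 3 h at 37 °C as absorbance at 450 nm.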
# [4] = Cytotoxicity on mammalian cells (CCK-8), HEK293; type: cell-based; conditions: human, HEK293 cells; HEK293 cell line; 24 h
# Method: (§1) Cytotoxicity test of bacterial sensitizers on mammalian cells. Cell viability was assessed by using Cell Counting Kit-8 (CCK-8, Dojindo, Japan). HEK293 or NIH3T3 cells were seeded in a 96-well plate one day before the experiment to reach 80% confluency. Cells were then incubated with various concentration of bacterial sensitizers at 37° C. with 5% CO2 for 24 h, then 10 μL of CCK-8 solution was added to each well, and the plate was incubated for an additional at 37° C. 2 h with 5% CO2. The optical density at 450 nm was recorded by plate reader; and the results were calculated as a percentage of viability compared with the untreated control.
# [5] = Cytotoxicity on mammalian cells (CCK-8), NIH3T3; type: cell-based; conditions: mouse, NIH3T3 cells, 3T3 cell line
# Method: as §1
# MRSA (ATCC 33592) = assay: MIC determination and sensitization fold on MRSA; type: cell-based, methicillin-resistant Staphylococcus aureus; conditions: MRSA; rifampicin; compound at 4 μM
# Method: Bacteria strains: E. coli (ATCC 25922), A. baumannii (ATCC 17978), K. pneumoniae (43816), S. maltophilia (ATCC 31559), S. typhimurium (ATCC 14028), C. werkmanii (ATCC 51114), S. aureus (ATCC 12600) and methicillin-resistant Staphylococcus aureus (MRSA, ATCC 33592) strains were purchased from ATCC. NR698 was provided.
# Bacteria culture and MICs determination: Gram-negative bacteria were cultured in Mueller Hinton II cation-adjusted broth. Gram-positive bacteria were cultured in LB broth. Mycobacterium smegmatis was cultured in Middlebrook 7H9 Broth. MICs of antibiotics itself were determined by performing two-fold serial dilutions of antibiotics. MICs of antibiotics in the presence of bacterial sensitizers were determined by performing two-fold serial dilutions of antibiotics with or without a constant concentration of bacterial sensitizers. The MICs tests were performed on 96-well plates with a final volume of 200 μl Mueller Hinton II cation-adjusted broth in each well. Each well was inoculated with 5×10^5 CFU/ml bacteria and was incubated for 24 h at 37° C. with continuous shaking of 200 rpm. The bacterial density was then determined by OD600. Bacterial growth %=OD600 of antibiotic treatment group/OD600 of antibiotic non-treatment group. MICs was determined as the concentrations that inhibit more than 90% of bacteria growth.
# Sensitization fold determination and FIC index calculations: Sensitization fold=MIC of antibiotic only/MIC of antibiotic with bacterial sensitizer. […] Since the MICs were determined by performing two-fold serial dilutions of antibiotic, so the sensitization fold can is the times of 2.
# Bacteria strains (as indicated in Table 5B) were cultured with rifampicin at various concentrations in the presence or absence of 10 μM of the indicated compound for 20 h at 37° C. The MIC, sensitization, cytotoxicity, and MIC on mycobacteria were tested according to methods described herein. […] The sensitization activities of compounds on MRSA were tested using rifampicin. The sensitization activities of compounds on E. coli were tested using rifampicin.
# HEK293 cells = assay: Cytotoxicity on mammalian cells (CCK-8), HEK293; type: cell-based; conditions: for IC50: Homo sapiens, HEK293
# Method: as §1
# NIH3T3 cells = assay: Cytotoxicity on mammalian cells (CCK-8), NIH3T3; type: cell-based; conditions: 3T3 cell line; 24 h
# Method: as §1
# [6] = E. coli towards the antibiotic, MD-124 5 μg/ml
# [7] = Escherichia coli, ATCC25922, 24 h, E. coli (wild type), antibiotic alone, read-out: MIC of AB only
# [8] = Escherichia coli, ATCC25922, 24 h
# [9] = 10 μM compound, rifampicin as the antibiotic (Table 6)
# [10] = E. coli, rifampicin, compound at 10 μM
compound,measurement,setting,value
"1, 4-Bis [((4-amidino)-2-methoxy)-phenoxy methyl]2-fluorobenzene dihydrochloride [MD-104]",MIC,"E. coli (ATCC 25922); E. coli, compound alone, read-out: MIC",50 µM
same,Sensitization,"E. coli (ATCC 25922); E. coli, rifampicin",No effect up to 25 μM.
same,MIC,B. subtilis,25 µM
same,Sensitization fold,B. subtilis; compound at 6 μM,2-fold at 6.
same,Sensitization fold,B. subtilis; compound at 12 μM,8-fold at 12 μM
same,MIC on mycobacteria,M. smegmatis; M. smegmatis,6 to 12 µM
O=C(N[C@H](CO)[C@H](O)c1ccc([N+](=O)[O-])cc1)C(Cl)Cl [Chloramphenicol],Sensitization fold,E. coli (ATCC 25922); [6],8 fold
same,MIC of AB with MD-124,E. coli (ATCC 25922); E. coli,1.6 µg/mL
same,MIC,"E. coli (ATCC 25922); Escherichia coli, ATCC25922, 24 h, read-out: MIC of AB only",12.5 µg/mL
same,Sensitization fold with 5 μg/ml MD-124,[1],4 fold
same,MIC of AB with 5 μg/ml MD-124,K. pneumoniae (43816),1.6 µg/mL
same,Sensitization fold with 5 μg/ml MD-124,K. pneumoniae (43816),>64 fold
same,Sensitization fold with 5 μg/ml MD-124,[2],8 fold
"CCC[C@@H]1C[C@@H](C(=O)N[C@@H]([C@H]2O[C@H](SC)[C@H](O)[C@@H](O)[C@H]2O)[C@H](C)Cl)N(C)C1 [Clindamycin, reference compound]",MIC of AB with MD-124,E. coli (ATCC 25922); E. coli,3.2 µg/mL
same,MIC,E. coli (ATCC 25922); [7],200 µg/mL
same,MIC of AB with 5 μg/ml MD-124,K. pneumoniae (43816),25 µg/mL
N=C(N)c1ccc(-c2ccc(-c3ccc(C(=N)N)cc3)[se]2)cc1 [Compound R],Sensitization ability: fold sensitization of E. coli towards rifampicin,E. coli; compound at 25 μM,"At 25 μM, sensitize E. coli towards rifampicin for 32-fold;"
same,IC50 at 24 h,[3],> 100 µM
N=C(N)c1ccc(-c2ccc(-c3ccc(-c4ccc(C(=N)N)cc4)o3)o2)cc1 [Compound T],Sensitization ability: fold sensitization of E. coli towards rifampicin,E. coli; compound at 25 μM,"At 25 μM, sensitize E. coli towards rifampicin for 32-fold;"
same,IC50 at 24 h,[3]; H9c2 cells (ATCC CRL-1446),> 100 µM
"N=C(N)c1ccc(-c2ccc3[nH]cc(-c4nc5ccc(C(=N)N)cc5[nH]4)c3c2)cc1 [Compound U, 3-(5-Amidinobenzimidazol-2-yl)-5-(4-amidinophenyl)indole acetate salt]",Sensitization ability: fold sensitization of E. coli towards rifampicin,E. coli; compound at 10 μM,"At 10 μM, sensitize E. coli towards rifampicin for 32-fold;"
same,IC50 at 24 h,[3]; H9c2 cells (ATCC CRL-1446),100 µM
"N=C(N)c1ccc(OCc2cccc(COc3ccc(C(=N)N)cc3)c2F)cc1 [DB2573, 1,3-Bis{(4-amidino)-phenoxymethyl}-2-fluorobenzene dihydrochloride]",CC50 at 24 h,[3],50 µM
same,Sensitization fold,"E. coli (ATCC 25922); E. coli, rifampicin, compound at 12 μM",32-fold at 12 μM
same,MIC,E. coli (ATCC 25922); [8],25 µM
same,Sensitization fold,B. subtilis; compound at 12 μM,4-fold at 12 μM
same,MIC,"B. subtilis; Bacillus subtilis, 24 h",25 µM
same,MIC,M. smegmatis,12 µM
"CC(=O)O[C@H]1C[C@@]2(C)[C@@H](C[C@@H](O)[C@H]3[C@@]4(C)CC[C@@H](O)[C@@H](C)[C@@H]4CC[C@@]32C)/C1=C(\CCC=C(C)C)C(=O)O [Fusidic acid, reference compound]",Sensitization fold,E. coli (ATCC 25922); [6],32 fold
same,MIC of AB with MD-124,E. coli (ATCC 25922); E. coli,6.25 µg/mL
same,MIC,E. coli (ATCC 25922); [7],> 200 µg/mL
same,Sensitization fold with 5 μg/ml MD-124,[1],128 fold
same,MIC of AB with 5 μg/ml MD-124,K. pneumoniae (43816),25 µg/mL
same,Sensitization fold with 5 μg/ml MD-124,K. pneumoniae (43816),4 fold
"N=C(N)c1ccc(OCc2ccc(COc3ccc(C(=N)N)cc3)cc2)cc1 [MD-101, 1,4-Bis [(4-amidino)-phenoxymethyl]benzene dihydrochloride]",CC50 at 24 h,[3],50 µM
same,Sensitization,"E. coli (ATCC 25922); E. coli, rifampicin",No effect up to 25 μM
same,MIC,E. coli (ATCC 25922); [8],100 µM
same,Sensitization fold,B. subtilis; compound at 3 μM,2-fold at 3 μM.
same,Sensitization fold,B. subtilis; compound at 6 μM,"4-fold at 6 μM,"
same,MIC,"B. subtilis; Bacillus subtilis, 24 h",25 µM
same,MIC,M. smegmatis,3 to 6 µM
same,CC50 at 24 h,[4],> 100 µM
same,CC50 at 24 h,[5],> 100 µM
"Cc1cc(COc2ccc(C(=N)NC(C)C)cc2)cc(COc2ccc(C(=N)NC(C)C)cc2)c1 [MD-102, 4,4′-(((5-methyl-1,3-phenylene)bis(methylene))bis(oxy))bis(N-isopropylbenzimidamide) dihydrochloride]",CC50 at 24 h,[3],> 100 µM
same,Sensitization fold,E. coli (ATCC 25922); [9],1 fold
same,Sensitization,"E. coli (ATCC 25922); E. coli, rifampicin",No effect up to 25 μM.
same,MIC,E. coli (ATCC 25922); [8],50 µM
same,sensitization activity,"E. coli (ATCC 25922); rifampicin, compound at up to 10 μM",no sensitization activity
same,Sensitization fold,B. subtilis; compound at 2 μM,4-fold at 2 μM
same,Sensitization fold,MRSA (ATCC 33592),32-fold at 4 μM
same,MIC,M. smegmatis,3 µM
same,CC50 at 24 h,[4],> 100 µM
same,CC50 at 24 h,[5],> 100 µM
"CC(C)(C)c1cc(COc2ccc(C(=N)N)cc2)cc(COc2ccc(C(=N)N)cc2)c1 [MD-105, 4,4′-(((5-(tert-butyl)-1,3-phenylene)bis(methylene))bis(oxy))dibenzimidamide dihydrochloride]",CC50 at 24 h,[3],25 µM
same,Sensitization fold,E. coli (ATCC 25922); [9],16 fold
same,Sensitization fold,E. coli (ATCC 25922); [10],16-fold at 10 μM.
same,MIC,E. coli (ATCC 25922); [8],25 µM
same,MIC,M. smegmatis,6 µM
same,IC50,HEK293 cells,25 to 50 µM
"N=C(N)c1ccc(OCc2cc(COc3ccc(C(=N)N)cc3)cc(COc3ccc(C(=N)N)cc3)c2)cc1 [MD-107, 4,4′,4″-((benzene-1,3,5-triyltris(methylene))tris(oxy))tribenzimidamide trihydrochloride]",CC50 at 24 h,[3],> 100 µM
same,Sensitization fold,"E. coli (ATCC 25922); E. coli, rifampicin, compound at 12.5 μM",4-fold at 12.5 μM
same,Sensitization fold,"E. coli (ATCC 25922); E. coli, rifampicin, compound at 25 μM",8-fold at 25 μM
same,MIC,E. coli (ATCC 25922); [8],50 µM
same,Sensitization fold,B. subtilis; compound at 6 μM,8-fold at 6 μM
same,MIC,"B. subtilis; Bacillus subtilis, 24 h",12.5 µM
same,MIC,M. smegmatis,3 to 6 µM
same,CC50 at 24 h,[4],> 100 µM
same,CC50 at 24 h,[5],> 100 µM
"COc1cc(OCc2ccc(C(=N)N)cc2)cc(OCc2ccc(C(=N)N)cc2)c1 [MD-126, 4,4′-(((5-methoxy-1,3-phenylene)bis(oxy))bis(methylene))dibenzimidamide dihydrochloride]",Sensitization fold,E. coli (ATCC 25922); [9],2 fold
same,Sensitization fold,E. coli (ATCC 25922); [10],2-fold at 10 μM
same,MIC,E. coli (ATCC 25922); [8],> 50 µM
same,CC50,"HEK293 cells; HEK293 cell line, 24 h",100 µM
same,IC50,HEK293 cells,100 µM
same,CC50,NIH3T3 cells,100 µM
